Measurements published in patent US12180174B2, “A2-73 crystalline polymorph compositions of matter and methods of use thereof” (ANAVEX LIFE SCIENCES CORP., priority 2018, dated 2024).

How the values were obtained:
[1] = tested on: human A[342-expressing worms; experiment: Abeta42-induced paralysis of worms; format: in vivo, C. elegans; settings: up to 12 days, quantified daily, vs M9 buffer
Source text: This encouraged the inventors to further look into the functional consequences of autophagy induction, focusing on the impact of the degradative pathway on proteostasis in vivo. Therefore, human A[342-expressing worms characterized by a time-dependent paralysis were employed, due to the accumulation of A[342 oligomers and high molecular weight aggregates in body wall muscle cells; it is stressed here that A[342-expressing worms are not considered as a model for AD, but rather as an experimental model for general proteostasis stress and proteotoxicity, where protein aggregation in muscle cells leads do a clear-cut phenotype (here, paralysis). A1342 protein aggregates were stained in situ with thioflavine. […] The accumulation of A[342 aggregates in the muscle cells is known to lead to an enhanced paralysis of the worms over time. […] C. elegans were treated with the compound (or M9 buffer as control) up to 12 days and paralysis was quantified daily. […]
For analysis of paralysis rate, synchronous CL2006 nematodes were cultivated at 15° C. on plates seeded with HB101 E. coli re-suspended in M9 (control) or 100 μM and 50 μM ANAVEX2-73. […] Worms were mounted on 2% agar pads on a glass slide and confocal fluorescence microscopical analyses were performed with the LSM 710 (Zeiss, Oberkochen) laser scanning microscope.

muscarinic receptor = settings: cited from earlier work
[2] = tested on: HEK293 cells stably expressing a GFP-LC3B reporter construct; experiment: GFP-LC3B puncta, confocal fluorescence microscopy; format: cell-based, human; settings: 1 μM, BafiA1
Experimental: Next, the Western blot experiments were complemented by direct visualization of the extent of autophagosome appearance in HEK293 cells. To do so, ANAVEX2-73 (1 μM) was applied to HEK293 cells stably expressing a GFP-LC3B reporter construct. This cell model allows direct monitoring of the accumulation of LC3-I I-positive autophagosomal structures upon BafiAi supplementation by confocal fluorescence microscopy.
(§1) Cell culture and microscopy. HeLa and HEK293A cells were cultured in DMEM (Invitrogen, Carlsbad, CA, USA, 41965062) supplemented with active FBS (Life Technologies GmbH, Carlsbad, CA, USA, 10270106), 1×ABAM (Invitrogen, 15240-062) and 1 mM sodium pyruvate (Invitrogen, 1136-088). After medium change, the cells were treated for 2 h with 10, 1, and 0.1 μM ANAVEX2-73 and PRE-084 (Tocris, Bristol, UK, 0589), respectively; ANAVEX2-73 was provided by ANAVEX Life Sciences Corp, New York, NY, USA. […] Proteins were detected by chemiluminescence using the Amersham Imager 600 (GE). Confocal fluorescence microscopical analyses of HEK293A cells stably expressing GFP-LC3B were performed with the laser scanning microscope LSM 710 (Zeiss, Oberkochen).
Confocal fluorescence microscopical analyses of HEK293A cells stably expressing GFP-LC3B were performed with the laser scanning microscope LSM 710 (Zeiss, Oberkochen).

ULK1 = ULK1 serine 555 phosphorylation, Western blot; format: cell-based, human; settings: 1 μM; HeLa cells
Source text: Activation of the serine/threonine protein kinase ULK1 (unc-51-like kinase 1) via phosphorylation at serine 555 indicates stimulation of the canonical autophagy pathway. […] It has to be mentioned that this activating ULK1 phosphorylation can be inhibited by mTOR as well as stimulated via AMPK kinase. Both are basal physiological sensors of nutritional conditions and key signal transducers of canonical autophagy stimulation. ULK1 is in fact the signal mediating the induction of the formation of the phagophore during the autophagy process and, therefore, a central promoter of autophagy. ULK1 itself functions in a complex with at least three protein partners: FI P200 (focal adhesion kinase family interacting protein of 200 kDa), ATG (autophagy-related protein) 13 (ATG13), and ATG101.
as §1, with “1136-088).” for “1136-088). After medium change, the cells were treated for 2 h with 10, 1, and 0.1 μM ANAVEX2-73 and PRE-084 (Tocris, Bristol, UK, 0589), respectively; ANAVEX2-73 was provided by ANAVEX Life Sciences Corp, New York, NY, USA.”

Sig-1 R = Sig-1 R (Homo sapiens, UniProt Q99720); settings: cited from earlier work
Sequence of Sig-1 R (Q99720 whole entry, species assumed): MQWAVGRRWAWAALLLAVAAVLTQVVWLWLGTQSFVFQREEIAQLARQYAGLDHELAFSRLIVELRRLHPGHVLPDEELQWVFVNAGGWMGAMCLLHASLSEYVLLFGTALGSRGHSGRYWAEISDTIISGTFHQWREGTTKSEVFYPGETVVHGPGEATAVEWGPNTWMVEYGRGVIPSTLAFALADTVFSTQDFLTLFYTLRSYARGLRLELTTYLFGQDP

C. elegans = experiment: GFP-LGG-1-II autophagic flux in worms, Western blot; format: in vivo; settings: 80 μM; BafiA1 or DMSO for 6 h
Source text: Autophagy modulation by ANAVEX2-73 in vitro and its impact on some key autophagy network factors prompted the inventors to further analyze the impact of Sig-1 R activation by ANAVEX2-73 on autophagy and proteostasis also in vivo, employing the C. elegans model. The nematode ortholog of the human Sig-1 R is W08F4.3 and is expressed in several tissues, including the muscular system. To monitor autophagic flux in vivo the inventors employed a GFP-LGG-1 reporter worm strain. LGG-1 is a nematode ortholog of the mammalian GABARAP, and the GFP-tagged protein can be used to evaluate autophagic activity by Western blotting as well as confocal fluorescence microscopy. Employing Western blotting, the levels of GFP-LGG-1-II plus BafiA1 and without BafiA1 were analyzed, analogously to the flux measurements in HeLa cells as shown in FIG. 37.
C. elegans strains, maintenance, methods. C. elegans were maintained according to standard procedures on nematode growth medium (NGM) plates seeded with HB101 E. coli. […]
For analysis of autophagic activity, synchronous nematodes expressing GFP::LGG-1 were cultivated at 20° C. […] Thereafter worms were lysed for Western blotting or analyzed by confocal fluorescence microscopy.
Western blot analyses were performed as described previously. […] Proteins were detected by chemiluminescence using the Fuji LAS-3000 dark box (Fujifilm, Dusseldorf).

CN(C)CC1CCOC1(c1ccccc1)c1ccccc1.Cl (stereo not shown) [ANAVEX2-73, tetrahydro-N,N-dimethyl-2,2-diphenyl-3-furanmethanamine hydrochloride]
paralysis ([1]; 50 NM): clear reduction in paralysis | paralysis ([1]; 100 NM): clear reduction in paralysis | affinity for muscarinic receptor (muscarinic receptor): low micromolar range | LC3-II-positive puncta and autophagic flux [2]: overall increased number of LC3-II-positive puncta and autophagic flux | ULK1 serine 555 phosphorylation (ULK1): up to 2 fold | affinity for Sig-1 R (Sig-1 R): low micromolar range | enhancement of autophagic flux (GFP-LGG-1-II, Western blot) (C. elegans): ~2 fold
